The source of these data is patent US12226400B2, “Neuroprotective disruption of Kv2.1/syntaxin interaction by small molecules” (UNIVERSITY OF PITTSBURGH-OF THE COMMONWEALTH SYSTEM OF …, priority 2018, dated 2025).

Assay [1] has as its target T1, munc18/syntaxin 1A (Homo sapiens, UniProt Q16623).
T1 construct: syntaxin 1A plasmid a gift RC204873; host or cells: HEK293
Briefly: Co-immunoprecipitation of munc18 and syntaxin in transfected HEK293 cells. It counts as cell-based. To be noted: mean±SEM. As to the method: Western Blot. Co-immunoprecipitation of munc18 and syntaxin was carried out using PEI transfection of HEK293 cells (American Type Culture Collection) plated and maintained in DMEM medium with 10% FBS and penicillin/streptomycin. 24 hr prior to transfection, HEK293 cells are plated onto 150 mm petri dishes from confluent T75 flasks at the ratio of 2/3 flask per plate. 24 hr after plating, PEI transfection was carried out by mixing 25% munc18 (OriGene RC204873), 25% syntaxin 1A (gift from Raymond A Frizzell, Children's Hospital of Pittsburgh), and 50% pcDNA3 (Invitrogen) plasmids ([…] total plasmids with 500 μl medium without penicillin/streptomycin, and 110 μl PEI at 1 mg/ml). The PEI was lastly added to the mixture drop-wise to avoid clumping of the DNA precipitates. This transfection reagent was allowed to incubate in room temperature for at least 5 min. The HEK293 medium was replaced with medium without penicillin/streptomycin prior to the addition of the transfection mixture. At 24 hr after transfection, the transfection medium was replaced with regular medium containing either cpd5 or DMSO. The cells were lysed and protein was harvested 24 hr after cpd5/DMSO treatment using 200 μl NP40 buffer (Invitrogen) containing phenylmethylsulfonyl fluoride (PMSF, Sigma-Aldrich) and protease inhibitor cocktail (¼ tablet, cOmplete Mini, EDTA-free, Sigma-Aldrich). The resulting HEK293 sample was immunoprecipitated using mouse anti-syntaxin 1A antibody (abeam). The western blot was probed using the Biogen system with the same syntaxin 1A antibody and mouse anti-Flag (Sigma-Aldrich) used for the detection of munc18. Quantification of protein pulldown was normalized to the syntaxin signal before comparisons. SDS-PAGE in this study are run in 10% acrylamide. Small variations in band separation are caused by the semi-wet transfer method.

Assay [2] relates to L5B corticocollicular neurons. Kind of assay: Slice electrophysiology, intrinsic properties of L5B corticocollicular neurons. The format is cell-based, mouse. The following applies: 10 min incubation in 10 μM cpd5. As to the method:
Stereotaxic injections for electrophysiology. Male or female ICR mice P21-30 (Jackson Laboratory) were anesthetized with 3% isoflurane (1.5% maintenance) and placed on the stereotaxic frame (Kopf). Core body temperature was maintained at ˜37° C. with a heating pad and eyes were protected with ophthalmic ointment. Lidocaine (1%) was injected under the scalp and an incision was made into the skin at the midline to expose the skull. […] A volume of ˜0.12 μl fluorospheres was pressure injected (25 psi, 10 ms duration) from capillary pipettes (Drummond Scientific) with a Picospritzer (Parker-Hannifin). After injection, the pipette was held in the brain for 2 min before slowly withdrawing. The scalp of the mouse was closed with cyanoacrylate adhesive. Mice were injected with the non-steroidal anti-inflammatory drug carprofen at 5 mg/kg (Henry Schein Animal Health) for 24 hours prior to and 48 hours after surgery. Mice were monitored for signs of postoperative stress and pain.
Slice electrophysiology. Slice electrophysiology experiments were performed in mice at least 2 days after fluorospheres injections. Following anesthesia with isoflurane, mice were immediately decapitated. Brains were rapidly removed and coronal slices (300 μm) containing the auditory cortex were prepared in a cutting solution at 1° C. using a Vibratome (VT1200 S; Leica). For evoked EPSC recordings, the cutting solution, pH 7.4, ˜300 mOsm, contained the following (in mM): 2.5 KCl, 1.25 NaH2PO4, 25 NaHCO3, 0.5 CaCl2, 7 MgCl2, 7 Glucose, 205 sucrose, 1.3 ascorbic acid, and 3 sodium pyruvate (bubbled with 95% O2/5% CO2). For evaluation of corticocollicular neuron electrical properties, the cutting solution, pH ˜7.4, contained the following (in mM): 135 NMDG, 1 KCl, 1.2 KH2PO4, 1.5 MgCl2, 1.5 CaCl2, 20 NaHCO3, 10 D-Glucose. The slices were then transferred and incubated at 34° C. for 30 min (bubbled with 95% O2/5% CO2) prior to recording. The incubating and recording solution contained the following (in mM): 125 NaCl, 2.5 KCl, 1.25 NaH2PO4, 25 NaHCO3, 2 CaCl2, 1 MgCl2, 10 D-Glucose, 1.3 ascorbic acid, and 3 sodium pyruvate (bubbled with 95% O2/5% CO2). Slices were stored at room temperature until the time of recording. The flow rate of the ACSF was ˜1.5 ml/min, and its temperature was maintained at 34° C. using an in-line heating system (Warner). Both slice electrophysiology experiments were carried out using MultiClamp-700B amplifier equipped with Digidata-1440A A/D converter and Clampex (Molecular Devices). Data were sampled at 10 kHz and Bessel filtered at 4 kHz. Pipette capacitance was compensated and series resistance for recordings was lower than 15 MΩ and measured throughout the experiments. Recordings were excluded from further analysis if the series resistance changed by more than 15% compared to the baseline period.
All data for intrinsic properties were acquired and analyzed within the Ephus software package. Series resistance was determined in voltage-clamp mode (command potential set at −70 mV) by giving a −5 mV voltage step. […] The difference between baseline and steady-state hyperpolarized current (ΔI) was used to calculate Rinput using the following formula: Rinput=−5 mV/ΔI−Rseries. The average resting membrane potential (Vm) was calculated by holding the neuron in voltage-follower mode (current clamp, at I=0) ˜2 minutes after breaking in and averaging the membrane potential over the next 30 sec. Subthreshold and suprathreshold membrane responses in current clamp were elicited by injecting −200 to +400 pA in 50 pA increments (baseline Vm was maintained at −70 mV, by injecting the required current, if necessary). Sag was measured during the −200 pA current injection, using the formula, SAG=(Vmin−Vsteady-state)/Vsteady-state. The first resulting action potential (AP) at rheobase was analyzed for AP width. AP width was calculated as the full-width at the half-maximum amplitude of the AP. […]

T1 sequence (Q16623 whole entry, species assumed): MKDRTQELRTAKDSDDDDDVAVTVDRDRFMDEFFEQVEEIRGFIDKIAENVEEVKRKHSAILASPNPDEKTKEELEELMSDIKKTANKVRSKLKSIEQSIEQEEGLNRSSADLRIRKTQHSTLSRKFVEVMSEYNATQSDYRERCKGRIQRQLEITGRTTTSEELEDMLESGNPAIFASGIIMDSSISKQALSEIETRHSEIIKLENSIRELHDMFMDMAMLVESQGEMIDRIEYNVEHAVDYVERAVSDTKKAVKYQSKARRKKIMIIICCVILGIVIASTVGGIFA

`COc1ccc(CNC(=O)Nc2cccc(-c3nc4ccccc4s3)c2)cc1OC` [cpd5, 3-[3-(1,3-benzothiazol-2-yl)phenyl]-1-[(3,4-dimethoxyphenyl)methyl]urea]: the “munc18 co-immunoprecipitated with syntaxin, cpd5/DMSO” value in assay [1] (10 μM cpd5, 24 hr) came to 1.032±0.034. Besides, the “munc18 co-immunoprecipitated with syntaxin, cpd5/DMSO” value in assay [1] (30 μM cpd5, 24 hr) is recorded as 0.4459±0.09367. Besides, the “munc18 co-immunoprecipitated with syntaxin, cpd5/DMSO” value in assay [1] (100 μM cpd5, 24 hr) was found to be 0.4339±0.135. Moreover, in assay [2], the action potential threshold entry was “no significant effect”, the action potential width result is on record as “no significant effect”, the firing rate result was “no significant effect” and the input resistance entry was “lack of significant effect”. Besides, in assay [2], the resting membrane potential result is recorded as “lack of significant effect” and the “sag ratio (V2/V1)” value is “lack of significant effect”.
